IC50 and Ki data for nine molecules are collected here from ChEMBL document CHEMBL1909046, “DrugMatrix in vitro pharmacology data”.

The target in data set [1] is Receptor tyrosine-protein kinase erbB-2 (Homo sapiens, UniProt P04626). The data set can be described thus: biochemical. It counts as cell-based, Insect cells. The conditions noted are these: insect cells.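 Note: inhibition of HER2 kinase enzyme activity, measured with Poly(Glu:Tyr) as the phosphorylation substrate; in other assays of this panel Not Active means under 50% inhibition at 10 µM.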
The target of data set [2] is Epidermal growth factor receptor (Homo sapiens, UniProt P00533). Kind of data set: DRUGMATRIX: Protein Tyrosine Kinase, EGF Receptor enzyme inhibition (substrate: Poly(Glu:Tyr)). It counts as cell-based, Insect cells. The conditions noted are these: Not Active = under 50% inhibition at 10 µM.
Data set [3] addresses T1, Alpha-2C adrenergic receptor (Homo sapiens, UniProt P18825).
T1 sequence (P18825 whole entry): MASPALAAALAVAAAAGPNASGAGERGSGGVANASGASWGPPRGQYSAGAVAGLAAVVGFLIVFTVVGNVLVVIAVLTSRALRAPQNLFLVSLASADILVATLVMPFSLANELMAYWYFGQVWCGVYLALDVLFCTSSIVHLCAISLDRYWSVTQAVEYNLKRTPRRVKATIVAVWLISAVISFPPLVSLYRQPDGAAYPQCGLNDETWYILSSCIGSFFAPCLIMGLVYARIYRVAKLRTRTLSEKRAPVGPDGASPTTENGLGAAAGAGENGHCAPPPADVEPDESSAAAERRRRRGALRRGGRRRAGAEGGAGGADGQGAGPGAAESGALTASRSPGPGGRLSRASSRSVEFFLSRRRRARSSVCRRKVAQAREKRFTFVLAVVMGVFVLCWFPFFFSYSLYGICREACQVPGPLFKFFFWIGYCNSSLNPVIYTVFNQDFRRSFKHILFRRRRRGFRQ
The data set can be described thus: DRUGMATRIX: Adrenergic Alpha-2C radioligand binding (ligand: [3H] MK-912). It counts as cell membranes, Sf9, Membrane. The conditions noted are these: sf9.

Data set [4] has as its target T2, Endothelin-1 receptor (Homo sapiens, UniProt P25101). Note: in other assays of this panel Not Active means under 50% inhibition at 10 µM.
T2 sequence (P25101 whole entry): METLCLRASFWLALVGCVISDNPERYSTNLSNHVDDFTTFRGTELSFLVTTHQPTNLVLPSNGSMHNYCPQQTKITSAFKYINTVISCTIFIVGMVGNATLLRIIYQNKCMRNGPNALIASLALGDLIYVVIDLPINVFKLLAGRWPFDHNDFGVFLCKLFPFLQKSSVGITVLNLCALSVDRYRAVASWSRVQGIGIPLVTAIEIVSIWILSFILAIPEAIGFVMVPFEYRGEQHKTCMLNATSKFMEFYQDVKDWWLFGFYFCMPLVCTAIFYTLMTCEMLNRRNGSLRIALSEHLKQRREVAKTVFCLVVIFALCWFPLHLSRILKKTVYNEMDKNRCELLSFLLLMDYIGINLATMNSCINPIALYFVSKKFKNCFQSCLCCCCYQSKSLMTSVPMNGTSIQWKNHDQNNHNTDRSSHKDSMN
It counts as cell membranes, CHO-K1, Membrane. The conditions noted are these: cho-k1.

The target of data set [5] is T3, Cholecystokinin receptor type A (Homo sapiens, UniProt P32238). Note: in other assays of this panel Not Active means under 50% inhibition at 10 µM.
T3 sequence (P32238 whole entry): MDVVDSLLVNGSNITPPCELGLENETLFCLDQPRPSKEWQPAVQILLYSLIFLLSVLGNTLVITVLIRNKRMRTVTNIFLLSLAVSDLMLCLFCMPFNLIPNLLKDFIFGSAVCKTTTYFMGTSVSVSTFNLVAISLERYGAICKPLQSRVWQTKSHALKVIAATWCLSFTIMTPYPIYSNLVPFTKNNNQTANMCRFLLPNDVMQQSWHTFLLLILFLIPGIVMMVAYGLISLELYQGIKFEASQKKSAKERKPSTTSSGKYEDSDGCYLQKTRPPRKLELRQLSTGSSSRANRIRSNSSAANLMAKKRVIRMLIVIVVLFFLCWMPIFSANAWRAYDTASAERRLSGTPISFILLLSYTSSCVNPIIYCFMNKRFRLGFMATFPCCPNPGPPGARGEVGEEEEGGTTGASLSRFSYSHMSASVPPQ
It counts as cell membranes, Membrane. The conditions noted are these: 1321-n1.

Data set [6] concerns the target T4, Cathepsin G (Homo sapiens, UniProt P08311).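 Note: inhibition of Cathepsin G enzyme activity, tested on an AMC-conjugated peptide substrate; in other assays of this panel Not Active means under 50% inhibition at 10 µM.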
T4 sequence (P08311 whole entry): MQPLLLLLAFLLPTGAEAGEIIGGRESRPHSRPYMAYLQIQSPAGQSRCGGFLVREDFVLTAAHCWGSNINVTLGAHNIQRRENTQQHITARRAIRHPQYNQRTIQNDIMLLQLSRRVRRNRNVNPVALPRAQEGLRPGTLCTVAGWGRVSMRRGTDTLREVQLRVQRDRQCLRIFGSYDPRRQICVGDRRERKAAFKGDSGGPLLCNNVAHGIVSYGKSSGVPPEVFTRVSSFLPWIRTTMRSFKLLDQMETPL
The data set is classed as tissue-based. To be noted: neutrophil.

In data set [7] the target is Voltage-gated inwardly rectifying potassium channel KCNH2 (Homo sapiens, UniProt Q12809). To be noted: hek293. Note: in other assays of this panel Not Active means under 50% inhibition at 10 µM.
Sequence of Voltage-gated inwardly rectifying potassium channel KCNH2 (Q12809 whole entry): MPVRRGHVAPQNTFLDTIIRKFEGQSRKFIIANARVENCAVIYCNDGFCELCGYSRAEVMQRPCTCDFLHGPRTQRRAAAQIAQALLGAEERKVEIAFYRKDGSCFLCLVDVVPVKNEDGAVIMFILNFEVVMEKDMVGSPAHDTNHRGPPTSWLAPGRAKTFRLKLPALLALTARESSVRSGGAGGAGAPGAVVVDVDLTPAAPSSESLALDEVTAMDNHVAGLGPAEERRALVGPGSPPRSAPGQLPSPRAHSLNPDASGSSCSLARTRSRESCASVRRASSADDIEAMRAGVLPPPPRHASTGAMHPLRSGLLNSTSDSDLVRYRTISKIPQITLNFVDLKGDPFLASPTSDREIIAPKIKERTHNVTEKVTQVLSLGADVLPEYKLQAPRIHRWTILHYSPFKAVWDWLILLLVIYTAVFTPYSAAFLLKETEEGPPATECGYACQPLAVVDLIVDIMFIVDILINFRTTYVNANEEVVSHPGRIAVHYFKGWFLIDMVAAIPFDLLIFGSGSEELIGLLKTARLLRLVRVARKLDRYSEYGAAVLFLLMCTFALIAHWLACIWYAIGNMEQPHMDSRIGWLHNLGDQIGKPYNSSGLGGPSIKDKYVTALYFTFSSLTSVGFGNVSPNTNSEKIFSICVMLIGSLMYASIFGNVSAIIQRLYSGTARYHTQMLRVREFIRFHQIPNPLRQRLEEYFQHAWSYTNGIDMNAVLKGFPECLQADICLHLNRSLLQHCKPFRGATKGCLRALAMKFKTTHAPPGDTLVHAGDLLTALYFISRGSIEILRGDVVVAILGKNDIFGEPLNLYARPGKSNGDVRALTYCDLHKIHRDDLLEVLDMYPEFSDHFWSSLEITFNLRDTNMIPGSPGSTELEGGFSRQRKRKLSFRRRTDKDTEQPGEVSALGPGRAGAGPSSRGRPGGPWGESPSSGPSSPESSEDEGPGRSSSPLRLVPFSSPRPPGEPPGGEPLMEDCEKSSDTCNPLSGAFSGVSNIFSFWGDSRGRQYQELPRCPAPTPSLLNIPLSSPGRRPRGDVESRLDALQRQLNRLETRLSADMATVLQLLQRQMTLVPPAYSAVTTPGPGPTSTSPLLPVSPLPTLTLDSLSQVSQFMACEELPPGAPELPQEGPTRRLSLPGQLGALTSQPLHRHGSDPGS

As for `Cn1ccnc1S` [METHIMAZOLE], the IC50 result in data set [1], in data set [2] (insect cells), in data set [3], in data set [4], in data set [5] and in data set [6] was “Not Active” each time. The IC50 (usually the midpoint of a concentration-inhibition curve) in data set [7] is “Not Active”. Also, in data set [7], the Ki result is recorded as “Not Active”.
`CC1(C)O[C@@H]2C[C@H]3[C@@H]4CCC5=CC(=O)C=C[C@]5(C)[C@@]4(F)[C@@H](O)C[C@]3(C)[C@]2(C(=O)CO)O1` [TRIAMCINOLONE ACETONIDE]: the IC50 result in data set [1], in data set [2] (insect cells), in data set [3], in data set [4], in data set [5] and in data set [6] was “Not Active” throughout. The IC50 result in data set [7] is “Not Active”. In data set [7], the Ki result is recorded as “Not Active”.
For the molecule `NC[C@H]1CC[C@H](C(=O)O)CC1` [TRANEXAMIC ACID], the IC50 entry in data set [1], in data set [2] (insect cells), in data set [3], in data set [4], in data set [5] and in data set [6] was “Not Active” in each case. The IC50 entry in data set [7] is reported as “Not Active”. Also, the Ki entry in data set [7] was “Not Active”.
For `COc1c(C)c2c(c(O)c1C/C=C(\C)CCC(=O)O)C(=O)OC2` [MYCOPHENOLIC ACID], the IC50 entry in data set [1], in data set [2] (insect cells), in data set [3], in data set [4], in data set [5] and in data set [6] was “Not Active” each time. Moreover, the IC50 entry in data set [7] is “Not Active”. Also, the Ki entry in data set [7] was “Not Active”.
Take `N[C@@H](Cc1ccc(N(CCCl)CCCl)cc1)C(=O)O`: the IC50 entry in data set [1], in data set [2] (insect cells), in data set [3], in data set [4], in data set [5] and in data set [6] was “Not Active” in each case. Besides, in data set [7], the IC50 entry was “Not Active”. Besides, the Ki result in data set [7] is given as “Not Active”.
For `CO[C@H]1/C=C/O[C@@]2(C)Oc3c(C)c(O)c4c(O)c(c(/C=N/N5CCN(C)CC5)c(O)c4c3C2=O)NC(=O)/C(C)=C\C=C\[C@H](C)[C@H](O)[C@@H](C)[C@@H](O)[C@@H](C)[C@H](OC(C)=O)[C@@H]1C` [RIFAMPIN], the IC50 entry in data set [1], in data set [2] (insect cells), in data set [3], in data set [4], in data set [5] and in data set [6] was “Not Active” throughout. The IC50 entry in data set [7] was “Not Active”. Also, the Ki entry in data set [7] was “Not Active”.
Take `O=NN(CCCl)C(=O)NC1CCCCC1` [LOMUSTINE]: the IC50 entry in data set [1], in data set [2] (insect cells), in data set [3], in data set [4], in data set [5] and in data set [6] was “Not Active” in each case. The half-maximal inhibitory concentration (IC50) result in data set [7] is listed as “Not Active”. The Ki result in data set [7] is on record as “Not Active”.
For the molecule `CSc1ccc(/C=C2/C(C)=C(CC(=O)O)c3cc(F)ccc32)cc1` [SULINDAC SULFIDE], the IC50 result in data set [1] was “Not Active”; in data set [2] (read-out: IC50), 24 µM; in data set [3], “Not Active”; in data set [4] it was “Not Active”; in data set [5], “Not Active”; in data set [6] it was “Not Active”. In data set [7], the IC50 entry is reported as “Not Active”. The Ki result in data set [7] is given as “Not Active”.
For SODIUM NITROPRUSSIDE, the concentration for half-maximal inhibition (IC50) result in data set [1], in data set [2] (insect cells), in data set [3], in data set [4], in data set [5] and in data set [6] was “Not Active” in each case. In addition, the IC50 entry in data set [7] was “Not Active”. For the same molecule, the Ki entry in data set [1], in data set [2] (insect cells), in data set [3], in data set [4], in data set [5] and in data set [6] was “Not Active” in each case. Moreover, the Ki result in data set [7] is given as “Not Active”.
